Here are results for one compound from patent US11406707B2, “STAT3 phosphorylation during graft-versus-host disease” (H. LEE MOFFITT CANCER CENTER AND RESEARCH INSTITUTE, INC., priority 2014, dated 2022).

Series [1] addresses STAT3 Ser727 and Y705 motifs (Homo sapiens, UniProt P40763). The note with it: literature; cited from earlier work.
Series [2] relates to allostimulated T-cell proliferation. Nature of the series: Primary 5-day alloMLR T-cell proliferation. Type of series: cell-based, human. From the text:
Bulk donor T-cells were allostimulated with cytokine-matured, allogeneic moDCs at a DC:T-cell ratio of 1:30 as previously described (Florida Blood Services) [Betts, B C, et al. (2011) Blood 118:5330-9; Betts, B C, et al. […] Betts, B C, et al. (2011) Blood 118:5340-3]. […] Lower doses of each drug were used in these experiments to mimic expected physiologic concentrations [Siddiquee, K, et al. (2007) Proceedings of the National Academy of Sciences of the United States of America 104:7391-6; Zeiser, R, et al. (2008) Blood 111:453-62], and to better detect potential synergistic activity with the combination of rapamycin and S3I-201. After 5 days of culture at […]-cell proliferation was measured by a colorimetric assay per the manufacturer's instructions (CellTiter 96 Aqueous One Solution Cell Proliferation Assay [MTS]; Promega, Madison, Wis. USA) [Betts, B C, et al. (2011) Blood 118:5330-9; Betts, B C, et al. […] Betts, B C, et al. (2011) Blood 118:5340-3]. Absorbance/optical density (OD) was analyzed at 490 nm. Secondary alloMLR: […] Following priming, the T-cells were then rested and re-cultured with fresh first-party moDCs (DC:T-cell ratio of 1:30). […] After 3 days, T-cell proliferation was measured by a colorimetric assay as described (Promega). T-cells alone and PHA-stimulated T-cells served as negative and positive controls, respectively, for both the primary and secondary alloMLRs.

Series [3] addresses T1, STAT3 (Homo sapiens, UniProt P40763).
T1 construct: endogenous in cells; host or cells: primary human T cells from healthy-donor PBMC, allostimulated by monocyte-derived dendritic cells
Kind of series: STAT3 phosphorylation in CD4+ T cells of 5 day allo-MLRs without exogenous cytokine. Type of series: cell-based. The note with it: S3I-201 50 or 100 μM, 5 day allo-MLR. The method, then: (§1) No exogenous cytokine was added. DC-allosensitized T cells were harvested on day 5. […] The ratio of CD4^+, pSTAT5^Bright to CD4^+, pSTAT3^+ T cells was calculated by percentage of phosphorylation.

For series [4], the system named is STAT5. Kind of series: IL-2-pulsed STAT5 phosphorylation in alloactivated T cells (flow cytometry). Type of series: cell-based, human. The procedure:
The 3-day exposure to allogenic moDCs allows the responding T cells to increase CD25 expression and capacity to receive IL-2 signaling, while resting or stimulated T cells phosphorylate STAT3 in response to IL-6 [Betts, B. C., et al. (2011) Blood 118, 5330-5339]. […] T-cell STAT phosphorylation was determined by surface staining for CD3, followed by fixation (CytoFix; […] The percentage of STAT3 and bright STAT5 phosphorylation in the T cells is depicted by the gates in each respective histogram (FIG. 1C, D).
(In flow cytometry, cells or beads pass a laser one at a time.)

In series [5] the test system is STAT5. Nature of the series: STAT5 phosphorylation in CD4+ T cells of 5 day allo-MLRs without exogenous cytokine. It counts as cell-based, human. The method, then:
as §1

Another series concerns S6 ribosomal protein. Nature of the series: Akt-mTOR-S6 signaling in IL-2-stimulated donor T-cells. The note with it: S3I-201 50 uM, 4 hours, IL-2 pulse. It counts as cell-based, human. The method, then:
T-cells were serum-starved in RPMI treated with DMSO diluent control, rapamycin 100 ng/ml (EMD Millipore, Billerica, Mass. USA), or STAT3 inhibitor S3I-201 50 uM (H. Lee Moffitt Cancer Center, Drug Discovery Core) for 4 hours. For the STAT3 experiments, the T-cells were first DC-allostimulated (DC:T-cell ratio of 1:30) for 3 days to optimize surface expression of IL-6 receptor alpha and STAT3 signaling among healthy volunteers. The T-cells were then cytokine-pulsed for 15 minutes with either IL-2 (R&D Systems) to activate the Akt-mTOR-S6 pathway, or IL-6 to stimulate STAT3 phosphorylation. The cells were then fixed and permeabilized as described, and then stained for CD3, CD4 (STAT3 experiments), phosphorylated STAT3 Y705, and phosphorylated S6.

Series [6] in a line: S3I-201 treatment of GVHD in vivo (B6 marrow +/- T-cells into Balb/c mice). From the text: FIG. 7. B6 T-cell depleted marrow (+/− T-cells) were given to Balb/c mice. S3I-201 or vehicle was given by i.p. from day 0 to day +7 only. Mice were then followed for body weight (FIG. 7B), GVHD clinical scores (FIGS. 7C, 7D), and survival (FIG. 7A).
B6 T-cell depleted marrow (+/− T-cells) were given to Balb/c mice. S3I-201 or vehicle was given by i.p. from day 0 to day +7 only. Mice were then followed for body weight (FIG. 7B), GVHD clinical scores (FIGS. 7C, 7D), and survival (FIG. 7A). […] All of the GVHD control mice (i.e., TCD marrow+T-cells+vehicle) have since died of GVHD.

In series [7] the target is T1, STAT3. Nature of the series: IL-6-pulsed STAT3 phosphorylation in alloactivated T cells (flow cytometry). Type of series: cell-based. The text has this: To confirm selective STAT3 inhibition, T cells were first briefly allostimulated by moDCs (DC:T cell ratio 1:30) and then pulsed with the relevant STAT3- or -5-dependent cytokine in the presence or absence of S3I-201. The 3-day exposure to allogenic moDCs allows the responding T cells to increase CD25 expression and capacity to receive IL-2 signaling, while resting or stimulated T cells phosphorylate STAT3 in response to IL-6 [Betts, B. C., et al. (2011) Blood 118, 5330-5339]. DC-allostimulated T cells (1×10^6) were then exposed to S3I-201 (50 or 100 μM) or DMSO for 4 h in serum-free RPMI (Corning Cellgro) to reduce background phosphorylation, followed by a 15 min pulse with IL-6 (4000 IU/ml) or -2 (50 IU/ml). T-cell STAT phosphorylation was determined by surface staining for CD3, followed by fixation (CytoFix; BD Biosciences), permeabilization with cold methanol, and intracellular staining for STAT3 and -5. The phosphorylated STAT3 and -5 geometric MFI ratio was calculated by dividing the geometric MFI of the cytokine-pulsed cells by the geometric MFI of the corresponding fluorochrome isotype.

Where [8] appears, read: S3I-201 50 or 100 μM, 5 day allo-MLR.

T1 sequence (P40763 whole entry): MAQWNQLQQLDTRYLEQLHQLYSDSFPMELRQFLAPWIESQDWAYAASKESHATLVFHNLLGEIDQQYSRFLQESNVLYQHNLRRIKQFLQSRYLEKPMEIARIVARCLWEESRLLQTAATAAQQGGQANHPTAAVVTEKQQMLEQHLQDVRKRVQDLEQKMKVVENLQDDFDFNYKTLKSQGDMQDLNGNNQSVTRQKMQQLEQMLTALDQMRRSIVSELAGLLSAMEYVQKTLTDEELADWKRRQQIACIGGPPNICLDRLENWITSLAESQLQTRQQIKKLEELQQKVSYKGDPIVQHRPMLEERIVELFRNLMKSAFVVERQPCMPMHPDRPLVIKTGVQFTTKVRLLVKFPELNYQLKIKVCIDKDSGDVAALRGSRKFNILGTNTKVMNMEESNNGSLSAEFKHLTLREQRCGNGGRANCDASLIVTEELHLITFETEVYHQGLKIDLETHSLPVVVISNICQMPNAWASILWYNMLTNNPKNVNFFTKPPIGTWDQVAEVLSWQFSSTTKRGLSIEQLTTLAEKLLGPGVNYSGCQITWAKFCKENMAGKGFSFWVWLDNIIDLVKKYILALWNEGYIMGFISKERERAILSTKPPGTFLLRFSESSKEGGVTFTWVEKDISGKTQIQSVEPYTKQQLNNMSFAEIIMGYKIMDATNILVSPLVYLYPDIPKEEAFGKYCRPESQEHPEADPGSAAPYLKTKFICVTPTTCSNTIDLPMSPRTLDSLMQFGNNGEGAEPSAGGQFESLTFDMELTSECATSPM
Sequence of STAT3 Ser727 and Y705 motifs (P40763 whole entry): as above

With `Cc1ccc(S(=O)(=O)OCC(=O)Nc2ccc(C(=O)O)c(O)c2)cc1` [S3I-201], in series [1], the “phosphorylation of the STAT3 Ser727 motif” value was “much less” and the “phosphorylation of the STAT3 Y705 motif” value is “predominantly inhibits”. The “allostimulated T-cell proliferation” value in series [2] (S3I-201 50 uM single agent) is “significantly reduced”. Also, in series [2] (S3I-201 below 50 μM single agent), the “alloreactive T-cell proliferation” value is reported as “no effect”. Further, on STAT3 [3], the “STAT3 phosphorylation in CD4+ alloresponders” value was “maintained on-target suppression”. Further, the “off-target effect on IL-2/STAT5 phosphorylation (geometric MFI ratio, percentage)” value in the series with STAT5 [4] (S3I-201 100 μM vs DMSO) is reported as “decrease in IL-2/STAT5 phosphorylation”. The “IL-2-induced STAT5 phosphorylation” value with STAT5 [4] (S3I-201 50 or 100 μM, 15 min IL-2 pulse, vs unstimulated baseline) is reported as “occurred in all treated T cells”. Moreover, in the series on STAT5 [5] (S3I-201 100 μM), the “CD4+, pSTAT5Bright population” value is recorded as “trend in reduced STAT5 phosphorylation”. Also, in the series on STAT5 [5] (setting [8]), the “STAT5 activation in response to DC allostimuli” value was “preserved” and the “ratio of CD4+, pSTAT5Bright to CD4+, pSTAT3+ T cells” value is “robust, dose-dependent polarization”. Moreover, the “CD4+, pSTAT5Bright population” value with STAT5 [5] (S3I-201 vs DMSO, 5 day allo-MLR) is listed as “maintained”. Also, the S6 activation entry with S6 ribosomal protein is given as “modestly reduced”. Further, the tolerability result in series [6] (2.5 mg/kg i.p. day 0 to day +7) was “well tolerated”. The tolerability entry in series [6] (5 mg/kg i.p. day 0 to day +7) is given as “toxic”. The survival entry in series [6] (S3I-201 i.p. day 0 to day +7, GVHD control mice all died) is “alive at day +53”. In addition, the “IL-6-mediated STAT3 signaling” value at STAT3 [7] (S3I-201 50 and 100 μM, 4 h, 15 min IL-6 pulse) is on record as “inhibited”. Besides, the “concentration giving the highest degree of STAT3 inhibition selectivity” value at STAT3 [7] (STAT3 vs STAT5 phosphorylation) is 50 µM.
